Assay results taken from PubChem BioAssay (NCI).
Where “and” joins values, the source holds several entries; their conditions need not be identical. Equal values may be shown once.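 Assay format: 96-well plates, 48-hour exposure. GI50: concentration for 50% inhibition of growth. TGI: concentration producing complete growth inhibition.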

What was measured:
Test in all cases: growth of human tumour cells (NCI), 48 h
K-562 leukemia = system: K-562 leukemia
MOLT-4 leukemia = system: MOLT-4 leukemia
SK-OV-3 ovarian = system: SK-OV-3 ovarian
NCI-H226 lung = system: NCI-H226 lung
SK-MEL-28 melanoma = system: SK-MEL-28 melanoma
CCRF-CEM leukemia = system: CCRF-CEM leukemia
UACC-62 melanoma = system: UACC-62 melanoma
HCC-2998 colon = system: HCC-2998 colon
RPMI-8226 leukemia = system: RPMI-8226 leukemia
KM12 colon = system: KM12 colon

Structure (SMILES) | TGI (K-562 leukemia) | TGI (MOLT-4 leukemia) | TGI (SK-OV-3 ovarian) | TGI (NCI-H226 lung) | TGI (SK-MEL-28 melanoma) | TGI (CCRF-CEM leukemia) | TGI (UACC-62 melanoma) | TGI (HCC-2998 colon) | TGI (RPMI-8226 leukemia) | TGI (KM12 colon) | GI50 (K-562 leukemia) | GI50 (MOLT-4 leukemia) | GI50 (SK-OV-3 ovarian) | GI50 (NCI-H226 lung) | GI50 (SK-MEL-28 melanoma) | GI50 (KM12 colon) | GI50 (UACC-62 melanoma) | GI50 (HCC-2998 colon) | GI50 (RPMI-8226 leukemia) | GI50 (CCRF-CEM leukemia)
COc1c(OC)c(OC)c(-c2cc(=O)c3c(OC)c(OC)c(OC)c(OC)c3o2)c(OC)c1OC | > 100 µM | > 100 µM | > 100 µM | > 100 µM | > 100 µM | > 100 µM | > 100 µM | > 100 µM | > 100 µM | – | – | – | – | – | – | – | – | – | – | –
O=c1[nH]c(-c2ccc([N+](=O)[O-])cc2)nc2ccc(Cl)cc12 | 38.8 µM | > 100 µM | > 100 µM | – | > 100 µM | – | > 100 µM | > 100 µM | > 100 µM | > 100 µM | – | – | – | – | – | – | – | – | – | –
C=C(C)C1CCC2(C(=O)O)CCC3(C)C(CCC4C5(C)CCC(O)C(C)(C)C5CCC43C)C12 (configuration not stated) | 27.3 µM | 26.5 µM | 34.2 µM | 40.9 µM | 41.8 µM | 36.5 µM | 32.2 µM | 24.7 µM | 63.5 µM | 20.3 µM | – | – | – | – | – | – | – | – | – | –
C[C@H]1CCC2C(CN3CCCCC3)C(=O)OC2[C@]2(C)C(=O)CC(N3CCCCC3)C12O (some centres not stated) | 39.2 µM | 10.9 µM | 79.9 µM | 6.73 µM | 32.9 µM | 10.1 µM | 5.92 µM | 18.2 µM | – | 12.3 µM | – | – | – | – | – | – | – | – | – | –
Cc1cc(C)c(C2=NO[C@@H]3C(=O)N(c4ccc(Cc5ccc(N6C(=O)[C@H]7C(c8c(C)cc(C)cc8C)=NO[C@H]7C6=O)cc5)cc4)C(=O)[C@H]23)c(C)c1 | > 100 µM | > 100 µM | > 100 µM | > 100 µM | > 100 µM | > 100 µM | > 100 µM | > 100 µM | > 100 µM | > 100 µM | – | – | – | – | – | – | – | – | – | –
COc1cc(/C=C2\CC3C4CCC5=CC(=O)CC[C@]5(C)C4CC[C@]3(C)C2=O)ccc1OCCN1CCCCC1 (some centres not stated) | 16.6 µM | 75.2 µM | 48.7 µM | 21.1 µM | 6.13 µM | – | 5.84 µM | 12.5 µM | 5.05 µM | 3.52 µM | 2.8 µM | 2.73 µM | 20.5 µM | 5.24 µM | 2.59 µM | 1.69 µM | 2.39 µM | 3.26 µM | 1.88 µM | –
C1C[S][Ge]2([S]CCS1)[S]CCSCC[S]2 | > 100 µM | > 100 µM | > 100 µM | > 100 µM | > 100 µM | > 100 µM | > 100 µM | > 100 µM | > 100 µM | – | > 100 µM | > 100 µM | > 100 µM | > 100 µM | > 100 µM | – | > 100 µM | > 100 µM | > 100 µM | > 100 µM
O=C1NC(Cc2ccccc2)C(=O)N2CCCC12 (configuration not stated) | > 100 µM | > 100 µM | > 100 µM | > 100 µM | > 100 µM | > 100 µM | > 100 µM | > 100 µM | > 100 µM | > 100 µM | – | – | – | – | – | – | – | – | – | –
Cc1cc(N(CCC#N)CCC#N)ccc1CC1N=C(c2ccccc2)OC1=O (configuration not stated) | > 100 µM | > 100 µM | > 100 µM | > 100 µM | > 100 µM | > 100 µM | > 100 µM | > 100 µM | > 100 µM | > 100 µM | – | – | – | – | – | – | – | – | – | –
C=CNC(=S)n1nc(-c2ccccc2NC(=O)C(F)(F)F)c(=O)n(C(=S)NC=C)c1=S | > 100 µM | > 100 µM | 73 µM | 86.6 µM | > 100 µM | > 100 µM | > 100 µM | > 100 µM | – | > 100 µM | – | – | – | – | – | – | – | – | – | –
O=C(Nc1nc(-c2ccccc2Cl)cs1)c1cc(-c2ccc(Cl)cc2)nc2ccc(Cl)cc12 | > 100 µM | > 100 µM | > 100 µM | 8.54 µM | > 100 µM | > 100 µM | 26 µM | > 100 µM | > 100 µM | 69.5 µM | 3.66 µM | 3.42 µM | 26 µM | 2.32 µM | 5.61 µM | 3.5 µM | 2.47 µM | 5.61 µM | 1.38 µM | 3.54 µM
O=[P+](O)c1cccnc1 | > 100 µM | > 100 µM | > 100 µM | > 100 µM | > 100 µM | > 100 µM | > 100 µM | > 100 µM | > 100 µM | > 100 µM | – | – | – | – | – | – | – | – | – | –
COc1cccc(/C=C2\CCc3ccccc3C2=O)c1 | 57.1 µM | 25.2 µM | 75.6 µM | 43.1 µM | 31 µM | 16.5 µM | 25.7 µM | 30.6 µM | 8.94 µM | 18.8 µM | 3.29 µM | 3.38 µM | 20.7 µM | 17.8 µM | 15.5 µM | 6.31 µM | 10.8 µM | 15.8 µM | 2.89 µM | 3.04 µM
CN(CCCCN)c1ccc2c(=O)[nH][nH]c(=O)c2c1 | > 100 µM | > 100 µM | > 100 µM | > 100 µM | > 100 µM | > 100 µM | > 77 µM | > 100 µM | > 100 µM | > 100 µM | – | – | – | – | – | – | – | – | – | –
CSc1nc(SC)c2c(C)cn(C3OC(C)C(O)C(O)C3O)c2n1 (configuration not stated) | – | > 100 µM | > 100 µM | > 100 µM | > 100 µM | > 100 µM | > 100 µM | > 100 µM | > 100 µM | > 100 µM | – | – | – | – | – | – | – | – | – | –
COc1ccc(/C=C/C(=O)c2ccccc2)cc1OC | > 100 µM | > 100 µM | 29.5 µM and > 100 µM | 53.6 µM and 32.3 µM | 38.1 µM and 32 µM | – | 27.1 µM and 27.3 µM | 33.2 µM and 28.6 µM | > 100 µM and 25.3 µM | 10.2 µM and > 100 µM | 3.95 µM | 17.9 µM | 37.8 µM | 16.4 µM | 17.6 µM | 6 µM | 11.7 µM | 14.2 µM | 3.93 µM | 3.72 µM
Cc1cc2c(C)nn(Cc3ccccc3Cl)c2c(C#N)c1C | – | > 100 µM | > 100 µM | > 100 µM | > 100 µM | > 100 µM | > 100 µM | > 100 µM | > 100 µM | – | – | – | – | – | – | – | – | – | – | –
